The test system of experiment [1] is HCT-116. Description: Antiproliferative activity against human HCT-116 cells assessed as inhibition of cell growth incubated for 72 hrs by MTT assay. It counts as functional, cell-based. Conditions: HCT-116, 72 h. In general terms: Tetrazolium assays rely on reduction of a dye to a coloured formazan, in cell work by metabolically active cells.
For experiment [2], the system named is OVCAR-8. Description: Antiproliferative activity against human OVCAR-8 cells assessed as inhibition of cell growth incubated for 72 hrs by MTT assay. The settings on record: OVCAR-8, 72 h. Type of experiment: functional, cell-based.
Experiment [3] relates to SF-295. Put plainly: Antiproliferative activity against human SF-295 cells assessed as inhibition of cell growth incubated for 72 hrs by MTT assay. Type of experiment: functional, cell-based. Conditions: SF-295, 72 h.
For experiment [4], the system named is HL-60. Put plainly: Antiproliferative activity against human HL-60 cells assessed as inhibition of cell growth incubated for 72 hrs by MTT assay. Conditions: HL-60, 72 h. Type of experiment: functional, cell-based.
Experiment [5] concerns Leishmania donovani. Put plainly: Antileishmanial activity against Leishmania donovani promastigotes. It counts as functional, organism-based.
Experiment [6] deals with Plasmodium falciparum. Description: Antimalarial activity against chloroquine-sensitive Plasmodium falciparum D10 incubated for 48 hrs. Type of experiment: functional, organism-based. Conditions: D10, 48 h.
Experiment [7] has as its system Plasmodium falciparum. Description: Antimalarial activity against […] incubated for 48 hrs. Type of experiment: functional, organism-based. The settings on record: K1, 48 h.
The subject of experiment [8] is Plasmodium falciparum. Put plainly: Antimalarial activity against Sulfadoxine-sensitive Plasmodium falciparum FCR3. It counts as functional, organism-based.
Experiment [9] has as its system Plasmodium falciparum. Description: Antimalarial activity against Sulfadoxine-sensitive Plasmodium falciparum HB3. It counts as functional, organism-based.
Experiment [10] relates to Plasmodium falciparum. Description: Antimalarial activity against Sulfadoxine-sensitive Plasmodium falciparum D6. Type of experiment: functional, organism-based.
The test system of experiment [11] is Plasmodium falciparum. Put plainly: Antimalarial activity against Sulfadoxine-resistant Plasmodium falciparum W2. It counts as functional, organism-based.
Experiment [12] relates to Plasmodium falciparum. Put plainly: Antimalarial activity against Sulfadoxine-resistant Plasmodium falciparum 3D7. Type of experiment: functional, organism-based.
Experiment [13] has as its system PC-3. Description: Cytotoxicity against human PC-3 cells assessed as inhibition of cell growth incubated for 48 hrs by SRB assay. Type of experiment: functional, cell-based. Conditions: PC-3, 48 h. Background: In SRB staining, fixed cells bind dye roughly in proportion to their protein.
Experiment [14] relates to MCF7. Description: Cytotoxicity against human MCF7 cells assessed as inhibition of cell growth incubated for 48 hrs by SRB assay. Conditions: MCF7, 48 h. It counts as functional, cell-based.
Experiment [15] concerns MDA-MB-231. Description: Cytotoxicity against human MDA-MB-231 cells assessed as inhibition of cell growth incubated for 48 hrs by SRB assay. It counts as functional, cell-based. Conditions: MDA-MB-231, 48 h.
Experiment [16] deals with SW480. Put plainly: Induction of apoptosis in human SW480 cells assessed as accumulation of cells at 5 uM incubated for 24 hrs by Acridine orange/ethidium bromide staining based fluorescent microscopic analysis (reference value: 13.6%). Type of experiment: functional.
Experiment [17] deals with A2780. Description: Cytotoxicity against human A2780 cells assessed as inhibition of cell growth incubated for 96 hrs by SRB assay. It counts as toxicity, cell-based. Conditions: A2780, 96 h.
Experiment [18] concerns MG-63. Description: Antiproliferative activity against human MG-63 cells assessed as inhibition of cell growth by MTT assay. It counts as functional, cell-based.
For experiment [19], the system named is MG-63. Put plainly: Antiproliferative activity against human MG-63 cells assessed as reduction in cell viability by SRB assay. Type of experiment: functional, cell-based.
The subject of experiment [20] is HCT-116. Description: Antiproliferative activity against human HCT-116 cells assessed as inhibition of cell growth at 25 ug/ml incubated for 72 hrs by MTT assay relative to control. Type of experiment: functional. More on the design: scale not given: the % may be the effect or the level left. The settings on record: dose 25 µg/ml.
The test system of experiment [21] is OVCAR-8. Put plainly: Antiproliferative activity against human OVCAR-8 cells assessed as inhibition of cell growth at 25 ug/ml incubated for 72 hrs by MTT assay relative to control. It counts as functional. More on the design: scale not given: the % may be the effect or the level left. The settings on record: dose 25 µg/ml.
In experiment [22] the test system is SF-295. Description: Antiproliferative activity against human SF-295 cells assessed as inhibition of cell growth at 25 ug/ml incubated for 72 hrs by MTT assay relative to control. It counts as functional. Set-up: scale not given: the % may be the effect or the level left. Conditions: dose 25 µg/ml.

Converted amounts (≈) assume the structure as drawn.

By IC50 is commonly meant the concentration at which inhibition is half-maximal. With `C=C(C)[C@H]1CCC2(C=O)OC2C1` (some centres undefined), the half-inhibitory concentration (IC50) in [1] was determined as 16.1 µM; in [2], 23.6 µM; in [3] it was 22 µM; in experiment [4], 9.7 µM; in experiment [5] it was 64.6 µg/mL (≈ 389 µM).

Turning to `Cc1cccc([C@]23CC[C@](c4cccc(C)c4)(OO2)[C@H]2O[C@H]23)c1`, the IC50 was 0.08 µM in experiment [6]; 0.08 µM in experiment [7]; 0.01 µM in [8]; 0.01 µM in [9]; 0.01 µM in [10]; more than 10 µM in experiment [11]. The IC50 in experiment [12] is more than 10 µM.

Regarding `C[C@]12CC[C@H]3[C@@H]([C@@H]4O[C@@H]4C4=CC(=O)C=C[C@@]43C)[C@@H]1CC(=O)OC2`, the IC50 in experiment [13], in experiment [14] and in experiment [15] was more than 100 µM in each case.

Regarding `C[C@H]1C(=O)OC([C@@H](O)[C@](C)(O)[C@H]2[C@@H](O)C[C@H]3[C@@H]4C[C@H]5O[C@]56[C@@H](O)C=CC(=O)[C@]6(C)[C@H]4CC[C@]23C)[C@@H]1C` (some centres undefined), the Activity in experiment [16] was found to be 33.8%.

On to `C=C1C(=O)O[C@@H]2[C@H]3C(C)=CC[C@@]34O[C@@]4(C)CC[C@@H]12` [ARGLABIN], for which, in [17], the IC50 came to 12.6 µM.

On to `CC(C)[C@@]12CC[C@@](C)(OO1)[C@@H]1O[C@@H]12`, for which the IC50 in experiment [6] is 0.08 µM; in [7], 0.08 µM; in [8], 0.01 µM; in experiment [9], 0.01 µM; in experiment [10], 0.01 µM; in experiment [11], more than 10 µM. In experiment [12], this compound returned an IC50 of more than 10 µM.

As for `C[C@@H]1CC[C@@H]([C@]2(C)CO2)[C@H](OCc2ccccc2)C1`, the IC50 in [18] and in experiment [19] was 100 µM each time.

Consider `C[C@]12CC[C@H]3[C@@H](C[C@@H]4O[C@@]45C[C@@H](O)CC[C@]35C)[C@@H]1CC(=O)OC2`, for which the IC50 in [15] amounted to 39.8 µM.

With `C[C@]1([C@H]2CC=C(C=O)CC2)CO1`, the Activity in experiment [20], in [21] and in experiment [22] was 96.32% in each case. Moreover, the 50% inhibitory concentration (IC50) in experiment [1] was determined as 1.03 µg/mL; in experiment [2], 1.03 µg/mL; in [3], 1.03 µg/mL; in [4], 1.03 µg/mL; in [5] it was 3.87 µg/mL (≈ 23.3 µM).

Turning to `C[C@@H]1OC(=O)C[C@H]2[C@@H]3CC[C@]45O[C@H]4C(=O)CC[C@]5(C)[C@H]3CC[C@]12C`, in [15], the IC50 came to 3.6 µM.

For the compound `C[C@]12CC[C@H]3[C@@H](C=CC4=CC(=O)[C@@H]5O[C@@H]5[C@@]43C)[C@@H]1CC(=O)OC2`, the IC50 is more than 100 µM in [13], more than 100 µM in experiment [14] and 16.4 µM in [15].
